Source: patent US10159653B2, “Methods and compositions for increasing energy expenditure using cinnamaldehyde” (NESTEC S.A., priority 2013, dated 2018)

Assays:
Human subjects [1] = assay: Comparative taste testing; assay type: in vivo; conditions: 4.8 ppm capsaicin or 350 ppm cinnamaldehyde
Protocol: Human subjects were administered a composition comprising 4.8 ppm capsaicin or 350 ppm cinnamaldehyde. […] 87.9% of the participants judged capsaicin intense to very intense, compared to only 20.5% for cinnamaldehyde. To achieve a similar effect on fat oxidation of capsaicin and cinnamaldehyde, the dose of capsaicin is about 1.5 times less than the maximum that can be used as a flavor (7 ppm according to Fenaroli's Handbook), and the dose of cinnamaldehyde is about 17.5 times less than the maximum that can be used as a flavor (6191.0 ppm according to Fenaroli's Handbook).

Human subjects [2] = assay: Nose temperature after ingestion; assay type: in vivo; conditions: fifteen minutes following ingestion
Protocol: The nose temperature of the subjects was analyzed over the fifteen minutes following ingestion of the various compounds.

[3] = Ludy et al. 2011; cited from earlier work
Human subjects [4] = assay: Postprandial fat oxidation after ingestion; assay type: in vivo
Protocol: The postprandial fat oxidation was measured over the 90 minutes following ingestion of the various compounds.

Human subjects [5] = assay: Chin temperature after ingestion (sympathetic nervous system activity); assay type: in vivo
Protocol: The chin temperature of the subjects was measured over the eighty minutes following ingestion of the various compounds. […] The increased sympathetic activity identified by measuring the facial temperature (increased blood flow on the chin) might explain the increased energy expenditure measured by indirect calorimetry.

Human subjects [6] = assay: Energy expenditure after ingestion (indirect calorimetry); assay type: in vivo
Protocol: Human subjects were administered placebo, a cooling flavor, capsaicin or cinnamaldehyde. The energy expenditure was measured over the eighty minutes following ingestion. […] The increased sympathetic activity identified by measuring the facial temperature (increased blood flow on the chin) might explain the increased energy expenditure measured by indirect calorimetry.

TRPV1 = TRPV1 (Homo sapiens, UniProt Q8NER1); conditions: cited from earlier work
TRPA1 [7] = conditions: read-out: EC50 of TRPA1 activation; cited from earlier work
TRPM8 = TRPM8 (Homo sapiens, UniProt Q7Z2W7); conditions: cited from earlier work
TRPA1 [8] = molecular target: T1, TRPA1 (Mus musculus, UniProt Q8BLA8); assay: Pre-clinical study, single dose: gastric emptying and short term food intake; assay type: in vivo; conditions: single dose 250 mg/kg bw
T1 construct: endogenous in cells; host or cells: living animals of the pre-clinical study (probably mice)

obese mice = assay: Pre-clinical study, chronic ingestion in food; assay type: in vivo; conditions: 0.2% in food
Protocol: The findings of the inventors were especially surprising in that a low dose (1.25 mg/kg body weight per day) of cinnamaldehyde at a flavoring range can provide an effect after a single ingestion. In a pre-clinical study by the inventors, the dose of cinnamaldehyde was about 250 mg/kg body weight per day, with chronic ingestion (effect on body weight gain and insulin sensitivity).

[9] = flavoring level of cinnamaldehyde judged significantly less intense than capsaicin

T1 sequence (Q8BLA8 whole entry): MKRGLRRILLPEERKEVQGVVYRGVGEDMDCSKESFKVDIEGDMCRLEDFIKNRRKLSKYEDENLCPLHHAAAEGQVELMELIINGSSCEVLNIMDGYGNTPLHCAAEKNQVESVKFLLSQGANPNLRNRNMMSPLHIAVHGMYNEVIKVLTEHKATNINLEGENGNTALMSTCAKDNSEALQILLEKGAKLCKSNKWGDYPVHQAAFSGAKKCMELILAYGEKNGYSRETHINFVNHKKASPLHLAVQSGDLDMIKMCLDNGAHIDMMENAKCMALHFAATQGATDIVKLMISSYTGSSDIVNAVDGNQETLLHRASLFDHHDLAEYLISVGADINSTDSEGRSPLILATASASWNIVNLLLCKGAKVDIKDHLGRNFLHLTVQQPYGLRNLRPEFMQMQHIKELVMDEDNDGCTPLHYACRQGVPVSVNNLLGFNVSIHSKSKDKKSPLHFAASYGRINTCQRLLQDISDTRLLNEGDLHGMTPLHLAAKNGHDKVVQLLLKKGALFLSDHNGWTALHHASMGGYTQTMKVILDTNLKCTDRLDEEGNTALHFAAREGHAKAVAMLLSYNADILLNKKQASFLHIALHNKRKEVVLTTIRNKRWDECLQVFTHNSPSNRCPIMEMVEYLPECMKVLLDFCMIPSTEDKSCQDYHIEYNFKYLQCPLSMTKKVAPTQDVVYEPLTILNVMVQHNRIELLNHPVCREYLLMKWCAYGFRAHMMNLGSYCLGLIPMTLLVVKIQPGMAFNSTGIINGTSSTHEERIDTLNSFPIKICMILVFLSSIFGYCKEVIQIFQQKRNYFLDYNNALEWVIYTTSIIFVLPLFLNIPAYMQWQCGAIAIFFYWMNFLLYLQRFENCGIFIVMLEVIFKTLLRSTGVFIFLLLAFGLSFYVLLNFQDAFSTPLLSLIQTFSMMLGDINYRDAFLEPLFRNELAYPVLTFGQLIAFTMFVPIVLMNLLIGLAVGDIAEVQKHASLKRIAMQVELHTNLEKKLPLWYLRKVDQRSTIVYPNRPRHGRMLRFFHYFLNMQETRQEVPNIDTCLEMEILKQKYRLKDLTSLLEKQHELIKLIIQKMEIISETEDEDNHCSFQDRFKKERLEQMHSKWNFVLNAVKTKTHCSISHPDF
Sequence of TRPM8 (Q7Z2W7 whole entry, species assumed): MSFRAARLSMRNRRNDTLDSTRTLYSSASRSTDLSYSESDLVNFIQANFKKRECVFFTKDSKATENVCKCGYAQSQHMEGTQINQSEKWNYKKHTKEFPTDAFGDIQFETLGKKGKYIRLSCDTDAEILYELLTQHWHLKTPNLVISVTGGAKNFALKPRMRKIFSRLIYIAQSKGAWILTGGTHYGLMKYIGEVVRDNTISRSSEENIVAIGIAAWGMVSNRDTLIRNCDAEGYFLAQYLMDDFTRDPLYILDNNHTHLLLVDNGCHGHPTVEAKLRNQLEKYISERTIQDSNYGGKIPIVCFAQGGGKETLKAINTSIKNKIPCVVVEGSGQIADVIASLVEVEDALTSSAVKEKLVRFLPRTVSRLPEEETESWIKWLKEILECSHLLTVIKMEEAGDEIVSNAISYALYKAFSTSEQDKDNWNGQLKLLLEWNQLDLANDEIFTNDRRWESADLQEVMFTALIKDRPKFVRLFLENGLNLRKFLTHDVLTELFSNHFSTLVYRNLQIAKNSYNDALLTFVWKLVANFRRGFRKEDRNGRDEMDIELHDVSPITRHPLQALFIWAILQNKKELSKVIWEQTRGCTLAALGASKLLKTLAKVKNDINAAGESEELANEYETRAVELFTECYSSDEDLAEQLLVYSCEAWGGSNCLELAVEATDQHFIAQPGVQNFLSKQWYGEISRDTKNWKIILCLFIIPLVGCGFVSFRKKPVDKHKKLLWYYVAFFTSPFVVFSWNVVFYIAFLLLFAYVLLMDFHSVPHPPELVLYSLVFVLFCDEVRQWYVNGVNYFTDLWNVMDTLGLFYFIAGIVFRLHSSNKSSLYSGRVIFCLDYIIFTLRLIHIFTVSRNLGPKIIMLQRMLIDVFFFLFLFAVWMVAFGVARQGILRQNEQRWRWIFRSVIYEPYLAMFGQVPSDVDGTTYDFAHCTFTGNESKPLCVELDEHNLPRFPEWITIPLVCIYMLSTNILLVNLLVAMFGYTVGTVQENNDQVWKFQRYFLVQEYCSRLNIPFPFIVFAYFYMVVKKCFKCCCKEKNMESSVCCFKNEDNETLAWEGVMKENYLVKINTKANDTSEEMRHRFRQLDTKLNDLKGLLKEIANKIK
Sequence of TRPV1 (Q8NER1 whole entry, species assumed): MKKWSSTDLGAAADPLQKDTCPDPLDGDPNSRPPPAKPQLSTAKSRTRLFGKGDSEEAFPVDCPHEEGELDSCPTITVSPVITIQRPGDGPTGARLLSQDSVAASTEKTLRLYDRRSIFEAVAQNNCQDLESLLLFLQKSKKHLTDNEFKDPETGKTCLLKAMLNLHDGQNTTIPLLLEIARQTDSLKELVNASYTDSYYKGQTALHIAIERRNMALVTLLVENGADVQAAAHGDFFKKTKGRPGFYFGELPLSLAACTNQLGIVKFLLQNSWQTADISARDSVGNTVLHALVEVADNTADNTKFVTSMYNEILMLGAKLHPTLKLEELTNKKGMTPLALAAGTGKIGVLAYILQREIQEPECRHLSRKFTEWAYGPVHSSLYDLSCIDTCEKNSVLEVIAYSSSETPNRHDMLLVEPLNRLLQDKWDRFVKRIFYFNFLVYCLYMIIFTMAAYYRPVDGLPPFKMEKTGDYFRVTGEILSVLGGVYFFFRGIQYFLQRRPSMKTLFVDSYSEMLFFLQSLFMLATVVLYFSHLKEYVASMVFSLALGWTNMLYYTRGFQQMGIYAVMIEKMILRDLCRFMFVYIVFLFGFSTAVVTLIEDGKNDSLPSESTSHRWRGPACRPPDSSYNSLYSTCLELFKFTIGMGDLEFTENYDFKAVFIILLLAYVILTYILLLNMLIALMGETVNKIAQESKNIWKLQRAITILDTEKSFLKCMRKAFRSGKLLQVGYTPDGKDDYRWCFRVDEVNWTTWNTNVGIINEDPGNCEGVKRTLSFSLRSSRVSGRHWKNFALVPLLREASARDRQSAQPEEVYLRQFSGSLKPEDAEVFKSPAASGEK

Row | SMILES | participants who judged the taste intense to very intense (Human subjects [1]) | nose temperature (Human subjects [2]) | efficient dose for increasing energy expenditure and fat oxidation [3] | effect on fat oxidation compared to capsaicin (Human subjects [4]; [9]) | postprandial fat oxidation compared to placebo (Human subjects [4]; human subjects, 90 minutes following ingestion, time course and AUC) | impact on sympathetic nervous system activity compared to capsaicin (Human subjects [5]; [9]) | chin temperature relative to baseline (Human subjects [5]; human subjects, eighty minutes following ingestion) | impact on energy expenditure compared to capsaicin (Human subjects [6]; [9]) | energy expenditure compared to placebo (Human subjects [6]; human subjects, eighty minutes following ingestion, time course and AUC) | activation of TRPV1 (TRPV1) | EC50 (TRPA1 [7]) | activation of TRPM8 (TRPM8) | short term food intake (TRPA1 [8]) | gastric emptying (TRPA1 [8]; through TRPA1 activation) | lean mass gain (obese mice) | body weight gain (obese mice; about 250 mg/kg bw/day) | food intake (obese mice; about 250 mg/kg bw/day) | insulin sensitivity (obese mice; about 250 mg/kg bw/day) | fat mass gain (obese mice; p 0.06)
1 | COc1cc(CNC(=O)CCCC/C=C/C(C)C)ccc1O [capsaicin] | 87.9% | increase nose temperatures | ≥ 20 mg |  |  |  |  |  |  |  |  |  |  |  |  |  |  |  | 
2 | O=CC=Cc1ccccc1 [cinnamaldehyde] |  | increase nose temperatures |  | equivalent effect | maintained at higher levels | significantly higher impact | increases chin temperature for a prolonged time | significantly higher impact | increased | not | ~60 µM | not | reduced short term food intake | delayed gastric emptying | no effect | reduces body weight gain | without affecting their food intake | improves their insulin sensitivity | tendency to decrease
